Data: ChEMBL document CHEMBL3046726, “Cytotoxic and genotoxic potentials of newly synthesized antiviral aminopyrazoloquinoline derivatives” (Med Chem Res, 2008)

Experiments:
MCF-10A [1] = test: Cell cycle arrest in Homo sapiens (human) MCF10A cells assessed as accumulation at G2/M phase at 50 uM after 72 hr by flow cytometry; format: ADME, cell-based
MCF7 [2] = test: Cell cycle arrest in Homo sapiens (human) MCF7 cells assessed as accumulation at G2/M phase at 50 uM after 72 hr by flow cytometry; format: ADME, cell-based; conditions: mcf7, 72 h
MCF7 [3] = test: Induction of apoptosis in Homo sapiens (human) MCF7 cells at 100 uM after 72 hr by flow cytometry; format: cell-based; conditions: mcf7, 72 h
MCF7 [4] = test: Induction of apoptosis in Homo sapiens (human) MCF7 cells at 10 uM after 72 hr by flow cytometry; format: cell-based; conditions: mcf7, 72 h
MDA-MB-231 [5] = test: Cell cycle arrest in Homo sapiens (human) MDA-MB-231 cells assessed as accumulation at G2/M phase at 50 uM after 72 hr by flow cytometry; format: ADME, cell-based; conditions: mda-mb-231, 72 h
MDA-MB-231 [6] = test: Induction of apoptosis in Homo sapiens (human) MDA-MB-231 cells at 10 uM after 72 hr by flow cytometry; format: cell-based; conditions: mda-mb-231, 72 h
MDA-MB-231 [7] = test: Cytotoxicity against Homo sapiens (human) MDA-MB-231 cells at 10 uM after 72 hr; format: cell-based; conditions: mda-mb-231, 72 h
MCF7 [8] = test: Cytotoxicity against Homo sapiens (human) MCF7 cells at 10 uM after 72 hr; format: cell-based; conditions: mcf7, 72 h
MCF7 [9] = test: Cell cycle arrest in Homo sapiens (human) MCF7 cells assessed as accumulation at G2/M phase at 100 uM after 72 hr by flow cytometry; format: ADME, cell-based; conditions: mcf7, 72 h
MCF-12A [10] = test: Cell cycle arrest in Homo sapiens (human) MCF12A cells assessed as accumulation at G2/M phase at 100 uM after 72 hr by flow cytometry; format: ADME, cell-based
MCF-12A [11] = test: Cell cycle arrest in Homo sapiens (human) MCF12A cells at 10 uM after 72 hr by flow cytometry; format: ADME, cell-based
MCF-10A [12] = test: Induction of apoptosis in Homo sapiens (human) MCF10A cells at 100 uM after 72 hr by flow cytometry; format: cell-based
MCF7 [13] = test: Cell cycle arrest in Homo sapiens (human) MCF7 cells at 10 uM after 72 hr by flow cytometry; format: ADME, cell-based; conditions: mcf7, 72 h
MCF7 [14] = test: Induction of apoptosis in Homo sapiens (human) MCF7 cells at 50 uM after 72 hr by flow cytometry; format: cell-based; conditions: mcf7, 72 h
MCF-12A [15] = test: Induction of apoptosis in Homo sapiens (human) MCF12A cells at 10 uM after 72 hr by flow cytometry; format: cell-based
MCF-12A [16] = test: Cell cycle arrest in Homo sapiens (human) MCF12A cells assessed as accumulation at G2/M phase at 50 uM after 72 hr by flow cytometry; format: ADME, cell-based
MCF-10A [17] = test: Induction of apoptosis in Homo sapiens (human) MCF10A cells at 50 uM after 72 hr by flow cytometry; format: cell-based
MCF7 [18] = test: Induction of BP-DNA adduct formation in Homo sapiens (human) MCF7 cells at 100 uM after 24 hr by 32P-postlabeling technique relative to control; format: cell-based; conditions: mcf7, 24 h
MDA-MB-231 [19] = test: Induction of apoptosis in Homo sapiens (human) MDA-MB-231 cells at 100 uM after 72 hr by flow cytometry; format: cell-based; conditions: mda-mb-231, 72 h
MCF-10A [20] = test: Cell cycle arrest in Homo sapiens (human) MCF10A cells assessed as accumulation at G2/M phase at 100 uM after 72 hr by flow cytometry; format: ADME, cell-based
MDA-MB-231 [21] = test: Cell cycle arrest in Homo sapiens (human) MDA-MB-231 cells at 10 uM after 72 hr by flow cytometry; format: ADME, cell-based; conditions: mda-mb-231, 72 h
MCF-12A [22] = test: Induction of apoptosis in Homo sapiens (human) MCF12A cells at 100 uM after 72 hr by flow cytometry; format: cell-based
MDA-MB-231 [23] = test: Cell cycle arrest in Homo sapiens (human) MDA-MB-231 cells assessed as accumulation at G2/M phase at 100 uM after 72 hr by flow cytometry; format: ADME, cell-based; conditions: mda-mb-231, 72 h
MCF-12A [24] = test: Cytotoxicity against Homo sapiens (human) MCF12A cells at 10 uM after 72 hr; format: cell-based
MCF-12A [25] = test: Induction of apoptosis in Homo sapiens (human) MCF12A cells at 50 uM after 72 hr by flow cytometry; format: cell-based
MDA-MB-231 [26] = test: Induction of apoptosis in Homo sapiens (human) MDA-MB-231 cells at 50 uM after 72 hr by flow cytometry; format: cell-based; conditions: mda-mb-231, 72 h
MCF-12A [27] = test: Cytotoxicity against Homo sapiens (human) MCF12A cells at 50 uM after 72 hr; format: cell-based
MCF-10A [28] = test: Cytotoxicity against Homo sapiens (human) MCF10A cells at 100 uM after 72 hr; format: cell-based
MCF7 [29] = test: Cytotoxicity against Homo sapiens (human) MCF7 cells at 50 uM after 72 hr; format: cell-based; conditions: mcf7, 72 h
MCF-10A [30] = test: Cytotoxicity against Homo sapiens (human) MCF10A cells at 50 uM after 72 hr; format: cell-based
MDA-MB-231 [31] = test: Genotoxicity in Homo sapiens (human) MDA-MB-231 cells assessed as reduction of BP-DNA adduct formation at 100 uM after 24 hr by 32P-postlabeling technique; format: toxicity, cell-based; parameters: scale not given: the % may be the effect or the level left; conditions: mda-mb-231, 24 h
MCF-12A [32] = test: Cytotoxicity against Homo sapiens (human) MCF12A cells at 100 uM after 72 hr; format: cell-based
MCF7 [33] = test: Cytotoxicity against Homo sapiens (human) MCF7 cells at 100 uM after 72 hr; format: cell-based; conditions: mcf7, 72 h
MCF-12A [34] = test: Genotoxicity in Homo sapiens (human) MCF12A cells assessed as reduction of BP-DNA adduct formation at 100 uM after 24 hr by 32P-postlabeling technique; format: toxicity, cell-based; parameters: scale not given: the % may be the effect or the level left
MDA-MB-231 [35] = test: Cytotoxicity against Homo sapiens (human) MDA-MB-231 cells at 50 uM after 72 hr; format: cell-based; conditions: mda-mb-231, 72 h
MDA-MB-231 [36] = test: Cytotoxicity against Homo sapiens (human) MDA-MB-231 cells at 100 uM after 72 hr; format: cell-based; conditions: mda-mb-231, 72 h

| Structure (SMILES) | Activity (MCF-10A [1]) | Activity (MCF7 [3]) | Activity (MCF7 [4]) | Activity (MDA-MB-231 [5]) | Activity (MDA-MB-231 [6]) | Activity (MDA-MB-231 [7]) | Activity (MCF7 [8]) | Activity (MCF7 [9]) | Activity (MCF-12A [10]) | Activity (MCF-12A [11]) | Activity (MCF-10A [12]) | Activity (MCF7 [13]) | Activity (MCF7 [14]) | Activity (MCF-12A [15]) | Activity (MCF-12A [16]) | Activity (MCF-10A [17]) | Activity (MDA-MB-231 [19]) | Activity (MCF-10A [20]) | Activity (MDA-MB-231 [21]) | Activity (MCF-12A [24]) | further results |
| --- | --- | --- | --- | --- | --- | --- | --- | --- | --- | --- | --- | --- | --- | --- | --- | --- | --- | --- | --- | --- | --- |
| Cc1ccc2cc3c(N)[nH]nc3nc2c1 | Non-toxic | Non-toxic | Non-toxic | Non-toxic | Non-toxic | Non-toxic | Non-toxic | Non-toxic | Non-toxic | Non-toxic | Toxic | Non-toxic | Non-toxic | Non-toxic | Non-toxic | Toxic | Non-toxic | Non-toxic | Non-toxic | Non-toxic | Activity (MCF7 [2]): Non-toxic; fold change (FC) (MCF7 [18]): 3.5; Activity (MCF-12A [22]): Toxic; Activity (MDA-MB-231 [23]): Non-toxic; Activity (MCF-12A [25]): Toxic; Activity (MDA-MB-231 [26]): Non-toxic |
| COc1ccc2cc3c(N)n[nH]c3nc2c1 | 20% | 15% | Non-toxic | 35% | Non-toxic | Non-toxic | Non-toxic | – | – | Non-toxic | – | Non-toxic | 10% | Non-toxic | 20% | 5% | 80% | – | Non-toxic | Non-toxic | Activity (MCF-12A [27]): 20%; Activity (MCF-10A [28]): 90%; Activity (MCF7 [29]): 30%; Activity (MCF-10A [30]): 20%; Activity (MDA-MB-231 [31]): > 60%; Activity (MCF-12A [32]): 90%; Activity (MCF7 [33]): 50%; Activity (MCF-12A [34]): 40%; fold change (FC) (MCF7 [18]): 2; Activity (MDA-MB-231 [35]): 30%; Activity (MCF-12A [25]): 30% |
| Nc1nc2c(ncn2COCCO)c(=O)[nH]1 [ACYCLOVIR] | Non-toxic | Non-toxic | Non-toxic | Non-toxic | Non-toxic | Non-toxic | Non-toxic | Non-toxic | Non-toxic | Non-toxic | Non-toxic | Non-toxic | Non-toxic | Non-toxic | Non-toxic | Non-toxic | Non-toxic | Non-toxic | Non-toxic | Non-toxic | Activity (MCF-12A [27]): Non-toxic; Activity (MCF7 [2]): Non-toxic; Activity (MCF-10A [28]): Non-toxic; Activity (MCF7 [29]): Non-toxic; Activity (MCF-10A [30]): Non-toxic; Activity (MCF-12A [32]): Non-toxic; Activity (MCF7 [33]): Non-toxic; Activity (MDA-MB-231 [35]): Non-toxic; Activity (MCF-12A [22]): Non-toxic; Activity (MDA-MB-231 [23]): Non-toxic; Activity (MCF-12A [25]): Non-toxic; Activity (MDA-MB-231 [26]): Non-toxic; Activity (MDA-MB-231 [36]): Non-toxic |
| Nc1[nH]nc2nc3ccccc3cc12 | – | Non-toxic | Non-toxic | – | Non-toxic | Non-toxic | Non-toxic | Non-toxic | Non-toxic | Non-toxic | Toxic | Non-toxic | – | Non-toxic | – | – | Non-toxic | Non-toxic | Non-toxic | Non-toxic | Activity (MCF-12A [22]): Toxic; Activity (MDA-MB-231 [23]): Non-toxic |
